The results in this text go back to patent publication US11542313B2, “Incretin analogs and uses thereof” (Eli Lilly and Company, priority 2017, dated 2023).

Values joined by “and” are separate entries in the source; they are usually repeats but may differ in a detail not shown here. Equal values may be shown once. Marks after values point to notes of the source that are not given here. *1 amine or outer side, *2 acyl side, *3 side chain or, on linkers, in order; H or OH if unused. Where a SMILES comes first, the peptide text is derived from it. Side-chain parts run from the residue outwards. [ ]: non-standard residue; d: D form. The star is where a group is joined. C20 diacid = O=C(O)CCCCCCCCCCCCCCCCCCC(=O)*; γGlu = O=C(O)[C@H](CCC(=O)[*:2])N[*:1]; αMeL = CC(C)C[C@](C)(N)C(=O)O; AEEA = NCCOCCOCC(=O)O; Aib = CC(C)(N)C(=O)O

The target in data set [1] is T1, human glucagon receptor (GcgR) (Homo sapiens, UniProt P47871).
T1 construct: expressed in transfected cells; host or cells: HEK293 (membranes)
T1 sequence (P47871 26-477): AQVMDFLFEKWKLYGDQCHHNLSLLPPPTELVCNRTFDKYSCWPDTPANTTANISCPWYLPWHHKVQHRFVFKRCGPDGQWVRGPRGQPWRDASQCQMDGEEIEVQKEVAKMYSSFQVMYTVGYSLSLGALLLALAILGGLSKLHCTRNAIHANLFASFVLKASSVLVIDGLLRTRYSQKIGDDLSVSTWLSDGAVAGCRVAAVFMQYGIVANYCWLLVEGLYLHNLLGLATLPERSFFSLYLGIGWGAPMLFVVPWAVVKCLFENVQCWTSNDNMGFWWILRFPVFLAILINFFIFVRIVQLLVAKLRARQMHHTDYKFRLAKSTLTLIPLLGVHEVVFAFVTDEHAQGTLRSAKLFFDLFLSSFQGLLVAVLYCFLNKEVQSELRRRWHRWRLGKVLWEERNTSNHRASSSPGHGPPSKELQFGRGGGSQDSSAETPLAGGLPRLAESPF
Description: Radioligand competition binding (SPA), human GcgR membranes. As to conditions: HEK293 membranes, SPA, bacitracin present; mean; read-out: Ki, GcgR. An excerpt: (§1) Radioligand competition binding assays are run to determine the equilibrium dissociation constant for exemplary compounds and comparator molecules.
(§2) Competition curves are plotted as the percent specific inhibition (y-axis) versus log concentration of compound (x-axis) and analyzed using a four parameter nonlinear regression fit with variable slope (ABase or Genedata).

A further data set addresses T2, hGIPR (Homo sapiens, UniProt P48546).
T2 construct: expressed in transfected cells; host or cells: HEK293
T2 sequence (P48546 22-466): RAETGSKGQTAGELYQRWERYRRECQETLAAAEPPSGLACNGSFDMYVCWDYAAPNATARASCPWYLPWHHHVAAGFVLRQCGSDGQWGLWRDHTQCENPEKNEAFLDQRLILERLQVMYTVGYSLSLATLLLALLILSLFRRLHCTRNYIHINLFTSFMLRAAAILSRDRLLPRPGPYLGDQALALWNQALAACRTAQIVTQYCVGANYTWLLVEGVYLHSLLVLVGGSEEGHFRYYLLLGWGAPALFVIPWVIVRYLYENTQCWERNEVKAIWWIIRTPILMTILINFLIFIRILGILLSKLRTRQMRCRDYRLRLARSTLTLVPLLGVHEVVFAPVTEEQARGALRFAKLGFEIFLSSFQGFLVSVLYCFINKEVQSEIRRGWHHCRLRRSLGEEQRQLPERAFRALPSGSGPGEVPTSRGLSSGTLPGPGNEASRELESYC
Description: cAMP assay in HEK293 cells expressing hGIPR, 0.1% casein. The class given is cell-based. The note with it: in the presence of 0.1% casein; read-out: cAMP EC50, GIPR.

Another data set in a line: in vivo. The note with it: male, Sprague-Dawley, rat, sc, 100 nmol/kg.
For data set [2] the following is noted: rat, in vivo, sc, 100 nmol/kg.
Description: (§3) The pharmacokinetics of the exemplary analogs are evaluated following a single subcutaneous administration of 100 nM/kg to male Sprague Dawley rats. Blood samples are collected over 120 hours, and resulting individual plasma concentrations are used to calculate pharmacokinetic parameters. Peptide plasma (K3 EDTA) concentrations are determined using a qualified LC/MS method that measured the intact mass of the analog. Each peptide and an analog as an internal standard are extracted from 100% specie specified plasma using methanol with 0.1% formic acid. A Thermo Q-Exactive, High Resolution Instrument, and a Thermo Easy Spray PepMap are combined for LC/MS detection.
Data set [3] concerns the target T3, human GIP receptor (GIPR) (Homo sapiens, UniProt P48546).
T3 construct: expressed in transfected cells; host or cells: HEK293 (membranes)
T3 sequence (P48546 22-466): T2 sequence (P48546 22-466)
Description: Radioligand competition binding (SPA), human GIPR membranes. As to conditions: HEK293 membranes, SPA, bacitracin present; mean; read-out: Ki, GIPR.
Source text: as §1, §2
On the technique in general: Displacement assays read how much labelled ligand stays bound in the presence of the test substance.

A further data set has as its target T4, hGcgR (Homo sapiens, UniProt P47871).
T4 construct: expressed in transfected cells; host or cells: HEK293
Description: cAMP assay in HEK293 cells expressing hGcgR, 0.1% casein. As to conditions: in the presence of 0.1% casein; read-out: cAMP EC50, GcGR. Format: cell-based.

For a further data set, the target named is T5, GLP-1 receptor (GLP-1R) (Homo sapiens, UniProt P43220).
T5 construct: expressed in transfected cells; host or cells: HEK293 (membranes)
T5 sequence (P43220 24-463): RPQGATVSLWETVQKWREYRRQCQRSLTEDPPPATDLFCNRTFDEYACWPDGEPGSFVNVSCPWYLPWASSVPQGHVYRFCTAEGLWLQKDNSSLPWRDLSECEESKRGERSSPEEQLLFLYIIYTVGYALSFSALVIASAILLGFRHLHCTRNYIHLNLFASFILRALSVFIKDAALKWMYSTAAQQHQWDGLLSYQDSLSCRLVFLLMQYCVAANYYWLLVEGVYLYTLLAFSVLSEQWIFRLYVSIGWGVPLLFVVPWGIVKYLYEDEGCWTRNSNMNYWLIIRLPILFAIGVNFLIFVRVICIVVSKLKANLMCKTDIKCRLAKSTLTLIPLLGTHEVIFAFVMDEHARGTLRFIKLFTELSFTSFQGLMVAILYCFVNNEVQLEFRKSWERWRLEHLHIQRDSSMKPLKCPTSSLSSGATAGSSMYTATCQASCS
Description: Radioligand competition binding (SPA), human GLP-1R membranes. As to conditions: HEK293 membranes, SPA, bacitracin present; mean; read-out: Ki, GLP-1R.
Source text: as §1, §2

In another data set the target is hGLP-1R (Homo sapiens, UniProt P43220). Description: cAMP assay in HEK293 cells expressing hGLP-1R, 0.1% casein. The class given is cell-based. As to conditions: in the presence of 0.1% casein; read-out: cAMP EC50, GLP-1R.
Chain of hGLP-1R (P43220 24-463): as above
Data set [4] relates to diet-induced obese (DIO) C57BL/6 mice. Description: Diet-induced obese C57BL/6 mice, 15-day study. The class given is in vivo, mouse. As to conditions: for Body weight % change: days 1 to 15, DIO mice. Here is the method: The exemplary incretin analogs as described herein are proposed as a treatment not only for diabetes but also for metabolic syndrome, which is a collection of co-morbidities (dyslipidemia, obesity, hepatic steatosis, etc.) associated with insulin resistance and diabetes. To investigate the effects of the exemplary analogs on parameters such as weight loss, metabolism, body composition and hepatic steatosis, they were dosed to C57BL/6 diet-induced obese (DIO) mice. These animals, although not diabetic, display insulin resistance, dyslipidemia and hepatic steatosis, all characteristics of metabolic syndrome, after being placed on a high-fat diet for 18 weeks.
Specifically, DIO male C57BL/6 mice 24 to 25 weeks old maintained on a calorie-rich diet are used in the following studies. Mice are individually housed in a temperature-controlled (24° C.) facility with 12-hour light/dark cycle (lights on 22:00) and free access to food (TD95217) and water. After a minimum of 2 weeks acclimation to the facility, the mice are randomized according to their body weight, so each experimental group of animals would have similar body weight. The body weights range from 40 to 51 g.
All groups contain 5-6 mice. Vehicle, exemplary analogs dissolved in vehicle (40 mM Tris-HCl at pH 8.0), and semaglutide dissolved in vehicle are administered by subcutaneous (SC) injection (10 mL/kg) to ad libitum fed DIO mice 30 to 90 minutes prior to the onset of the dark cycle every 3 days for 15 days. SC injections are made on Day 1, 4, 7, 10 and 13. Body weight and food intake are measured daily throughout the study.
Absolute changes in body weight are calculated by subtracting the body weight of the same animal prior to the first injection of vehicle, analog or semaglutide. On Days 0 and 15, total fat mass is measured by nuclear magnetic resonance (NMR) using an Echo Medical System Instrument (Houston, Tex.). On Day 15, animals are sacrificed prior to dark photoperiod, and the livers are removed and frozen. Liver triglycerides, determined from homogenates of livers collected at sacrifice, and plasma cholesterol are measured on a Hitachi Modular P clinical analyzer.
Data are presented as mean±SEM of 5-6 animals per group in Tables 7 and 8 below. Statistical analysis is performed using repeated measures ANOVA, followed by Dunnett's method for multiple comparisons. Significant differences are identified at p<0.05.

The test system of a further data set is male Wistar rats. Description: Intravenous glucose tolerance test (ivGTT), insulin secretion in male Wistar rats. The class given is in vivo, rat. Also on record: unit not given here. The note with it: semaglutide 10 nmol/kg positive control in the run of the Example, mean ± SEM, n=6. On the procedure:
An intravenous glucose tolerance test (ivGTT) in rats (male Wistar) is used to estimate insulinotropic potency of the exemplary analogs. The GLP-1 RA semaglutide is used as a positive control. Rats with surgically implanted cannulas in the jugular vein and carotid artery (Envigo, Indianapolis, Ind.; 280-320 grams) are housed one per cage in polycarbonate cages with filter tops. Rats are maintained on a 12-hour light-dark cycle at 21° C. and receive 2014 Teklad Global Diet (Envigo, Indianapolis) and deionized water ad libitum. Rats are randomized by body weight and dosed 1.5 mL/kg subcutaneous (sc) with exemplary analogs 16 hours prior to glucose administration, and then fasted. Stock concentrations of […] of the exemplary analogs are diluted in Tris buffer pH 8.0 to 6.667 nMol/mL, 2.0 nMol/mL, 0.667 nMol/mL, 0.2 nMol/mL; doses tested are vehicle, 1, 3 and 10 nMol/kg, and, in some cases 0.3 and 30 nMol/kg. Semaglutide is used as positive control, and its insulinotropic effects are measured both in its own test (vehicle and 1, 3, 10 and 30 nMol/kg doses) and in connection with each run of the exemplary analogs (10 nMol/kg dose).
A time 0 blood sample is collected into EDTA tubes after which glucose is administered ([…], 5 mL/kg). […] Plasma insulin is determined using an electrochemiluminescence assay (Meso Scale, Gaithersburg, Md.). […]

The mark [5] stands for this setting: 3 nmol/kg, after fifteen days, DIO mice, mean ± SEM.

T4 sequence (P47871 26-477): as the sequence (P47871 26-477) above
Description for in vivo: as §3

As usually defined, the Ki is the equilibrium dissociation constant of an inhibitor or competing ligand from its target. By EC50 is commonly meant the concentration at which the effect is half-maximal. The CL/F is the apparent clearance, not corrected for the fraction that reaches the circulation. One may read the Tmax as the time from dosing to the highest level. Usually half-life stands for the time in which the quantity being followed falls by half. As for `CC[C@H](C)[C@H](NC(=O)[C@H](Cc1ccccc1)NC(=O)[C@H](C)NC(=O)C(C)(C)NC(=O)[C@H](CCC(N)=O)NC(=O)[C@H](C)NC(=O)[C@H](CCCCNC(=O)COCCOCCNC(=O)CC[C@H](NC(=O)CCCCCCCCCCCCCCCCCCC(=O)O)C(=O)O)NC(=O)[C@H](CCCCN)NC(=O)[C@H](CC(=O)O)NC(=O)[C@H](CC(C)C)NC(=O)[C@H](CC(C)C)NC(=O)[C@@H](NC(=O)[C@H](CO)NC(=O)[C@H](Cc1ccc(O)cc1)NC(=O)[C@H](CC(=O)O)NC(=O)[C@H](CO)NC(=O)[C@@H](NC(=O)[C@H](Cc1ccccc1)NC(=O)[C@@H](NC(=O)CNC(=O)[C@H](CCC(N)=O)NC(=O)C(C)(C)NC(=O)[C@@H](N)Cc1ccc(O)cc1)[C@@H](C)O)[C@@H](C)O)[C@@H](C)CC)C(=O)N[C@@H](CCC(=O)O)C(=O)N[C@@H](Cc1ccc(O)cc1)C(=O)N[C@@H](CC(C)C)C(=O)N[C@@H](CC(C)C)C(=O)N[C@@H](C)C(=O)NC(C)(C)C(=O)NCC(=O)N1CCC[C@H]1C(=O)N[C@@H](CO)C(=O)N[C@@H](CO)C(=O)NCC(=O)N[C@@H](C)C(=O)N1CCC[C@H]1C(=O)N1CCC[C@H]1C(=O)N1CCC[C@H]1C(=O)N[C@@H](CO)C(N)=O` [Example 4] (H-Y[Aib]QGTFTSDYSILLDKK([AEEA-γGlu-C20 diacid])AQ[Aib]AFIEYLLA[Aib]GPSSGAPPPS-NH2), the Ki came to 2550 pM in data set [1], 37.4 pM in data set [3] and 3540 pM at GLP-1 receptor (GLP-1R). The EC50 on hGIPR came out at 64.8 pM; on hGcgR, 67.4 pM; on hGLP-1R it was 180 pM. The CL/F in the data set “in vivo” was 0.12 mL/min/kg. The Tmax in the data set “in vivo” worked out at 16 h. The same compound gave a half-life in “in vivo” of 19.9 h. For the same compound, in data set [2], the AUCINF_D_obs was 140 hr*kg*nmol/L/nmol.

As for `CC[C@H](C)[C@H](NC(=O)[C@H](Cc1ccccc1)NC(=O)[C@H](C)NC(=O)C(C)(C)NC(=O)[C@H](CCC(N)=O)NC(=O)[C@H](C)NC(=O)[C@H](CCCCNC(=O)COCCOCCNC(=O)CC[C@H](NC(=O)CCCCCCCCCCCCCCCCCCC(=O)O)C(=O)O)NC(=O)[C@H](CCCCN)NC(=O)[C@H](CC(=O)O)NC(=O)[C@H](CC(C)C)NC(=O)[C@](C)(CC(C)C)NC(=O)[C@@H](NC(=O)[C@H](CO)NC(=O)[C@H](Cc1ccc(O)cc1)NC(=O)[C@H](CC(=O)O)NC(=O)[C@H](CO)NC(=O)[C@@H](NC(=O)[C@H](Cc1ccccc1)NC(=O)[C@@H](NC(=O)CNC(=O)[C@H](CCC(N)=O)NC(=O)C(C)(C)NC(=O)[C@@H](N)Cc1ccc(O)cc1)[C@@H](C)O)[C@@H](C)O)[C@@H](C)CC)C(=O)N[C@@H](CCC(=O)O)C(=O)N[C@@H](Cc1ccc(O)cc1)C(=O)N[C@@H](CC(C)C)C(=O)N[C@@H](CC(C)C)C(=O)N[C@@H](CCC(=O)O)C(=O)NC(C)(C)C(=O)NCC(=O)N1CCC[C@H]1C(=O)N[C@@H](CO)C(=O)N[C@@H](CO)C(=O)NCC(=O)N[C@@H](C)C(=O)N1CCC[C@H]1C(=O)N1CCC[C@H]1C(=O)N1CCC[C@H]1C(=O)N[C@@H](CO)C(N)=O` [Example 13] (H-Y[Aib]QGTFTSDYSI[αMeL]LDKK([AEEA-γGlu-C20 diacid])AQ[Aib]AFIEYLLE[Aib]GPSSGAPPPS-NH2), the Ki in data set [1] turned out to be 1910 pM; in [3], 45.2 pM; at GLP-1 receptor (GLP-1R), 6430 pM. In addition, the results for the EC50 on hGIPR, on hGcgR and on hGLP-1R were 39.1 pM, 81.5 pM and 125 pM, respectively. For the same compound, the CL/F in the data set “in vivo” is 0.0817 mL/min/kg. In the data set “in vivo”, the Tmax stood at 20 h. Besides, in the data set “in vivo”, the half-life is 21.7 h. In [2], this compound yielded an AUCINF_D_obs of 205.7 hr*kg*nmol/L/nmol.

Take semaglutide: in data set [4] (3 nmol/kg SC every 3 days), the “Body weight % change” value was −2.62 ± 0.49%. Moreover, in data set [4] (setting [5]), the ALT is 99.8 ± 14.84 IU/L, the Cholesterol worked out at 218.0 ± 9.23 mg/dL, the Glucose was 137.8 ± 7.34 mg/dL and the “Liver Triglycerides” value amounted to 226.4 ± 23.8 mg/g tissue. The “Plasma Insulin” value in data set [4] (setting [5]) came to 4196 ± 1014 pg/mL. In [4] (10 nmol/kg SC every 3 days), the “Body weight % change” value was −10.31 ± 1.25%. The “Body weight % change” value in data set [4] (30 nmol/kg SC every 3 days) was −15.49 ± 2.44%. Besides, the “AUC30min of Insulin after a Bolus IV Glucose” value in the data set with male Wistar rats was 44.7 +/− 3.7* and 55.1 +/− 9.0* and 40.2 +/− 2.5* and 38.4 +/− 6.0* and 56.3 +/− 7.7* and 48.4 +/− 6.6* and 51.86 +/− 6.7* and 45.6 +/− 6.6*.
